Assay results taken from patent US10266537B2, “3-acetylenyl-pyrazole-pyrimidine derivative, and preparation method therefor and uses thereof” (Si Chuan University, priority 2015, dated 2019).
Like-named read-outs stand apart in the source and are kept apart here.

Columns and labels:
[1] = biological target: JAK2 (Homo sapiens (Human), UniProt O60674); experiment: Kinase inhibition assay (KinaseProfiler, 33P-ATP); format: biochemical
[2] = test system: CFPAC; experiment: Cell proliferation inhibition assay (MTT); format: cell-based; conditions: Homo sapiens, read-out: Proliferation inhibitory activity IC50
Experimental: (§1) The cells were seeded in 96-well plates with 200 μL of cell suspension per well and incubated overnight in a cell culture medium with a cell concentration of 1 2×10^4 cells/mL. The next day, the supernatant was discarded (the suspension cell was centrifuged before it) and the cells were treated with gradient concentrations of the test compound, respectively. […] After 72 hours, add 20 μL of MTT reagent at a concentration of 5 mg/mL per well. After incubation for 2-4 h, the supernatant was discarded and 150 μL of DMSO was added to each well. […] Relative cell proliferation inhibition rate=([MUT]-[MUT])×100%/[MUT]. The experiment was repeated at least 3 times. Experimental data were expressed as mean, data statistics using t test, P<0.05 for the difference was statistically significant.

[3] = biological target: Abl (Homo sapiens (Human), UniProt P00519); experiment: Kinase inhibition assay (KinaseProfiler, 33P-ATP); format: biochemical
[4] = test system: SW1990; experiment: Cell proliferation inhibition assay (MTT); format: cell-based; conditions: Homo sapiens, read-out: Proliferation inhibitory activity IC50
Experimental: as §1

[5] = test system: HepG2; experiment: Cell proliferation inhibition assay (MTT); format: cell-based; conditions: Homo sapiens, 72 hours, read-out: Proliferation inhibitory activity IC50
Experimental: as §1

[6] = test system: plc/prf/5; experiment: Cell proliferation inhibition assay (MTT); format: cell-based; conditions: Homo sapiens, 72 hours, read-out: Proliferation inhibitory activity IC50
Experimental: as §1

[7] = test system: THP-1; experiment: Cell proliferation inhibition assay (MTT); format: cell-based; conditions: Homo sapiens, 72 hours, read-out: Proliferation inhibitory activity IC50
Experimental: as §1

[8] = test system: MAPK1(h); experiment: Kinase inhibition assay (KinaseProfiler, 33P-ATP); format: biochemical, human
[9] = biological target: EphA1(h) (Homo sapiens (Human), UniProt P21709); experiment: Kinase inhibition assay (KinaseProfiler, 33P-ATP); format: biochemical; conditions: read-out: The percentage of the remaining active protein
[10] = biological target: MEK1(h) (Homo sapiens (Human), UniProt Q02750); experiment: Kinase inhibition assay (KinaseProfiler, 33P-ATP); conditions: read-out: The percentage of the remaining active protein
[11] = biological target: TAK1 (Homo sapiens (Human), UniProt O43318); experiment: Kinase inhibition assay (KinaseProfiler, 33P-ATP); format: biochemical; conditions: for remaining activity at 10 µM: TAK1(h), read-out: The percentage of the remaining active protein
[12] = biological target: PIP5K1a(h) (Homo sapiens (Human), UniProt Q99755); experiment: Kinase inhibition assay (KinaseProfiler, 33P-ATP); format: biochemical; conditions: read-out: The percentage of the remaining active protein
[13] = biological target: cKit (V560G) (Homo sapiens (Human), UniProt P10721, V560G); experiment: Kinase inhibition assay (KinaseProfiler, 33P-ATP); format: biochemical; conditions: cKit(V560G)(h), read-out: The percentage of the remaining active protein
[14] = biological target: Fms(Y969C)(h) (Homo sapiens (Human), UniProt P07333, Y969C); experiment: Kinase inhibition assay (KinaseProfiler, 33P-ATP); format: biochemical; conditions: read-out: The percentage of the remaining active protein
[15] = biological target: PDGFRα (D842V) (Homo sapiens (Human), UniProt P16234, D842V); experiment: Kinase inhibition assay (KinaseProfiler, 33P-ATP); format: biochemical; conditions: PDGFRα(D842V)(h), read-out: The percentage of the remaining active protein
[16] = biological target: TSSK1(h) (Homo sapiens (Human), UniProt Q9BXA7); experiment: Kinase inhibition assay (KinaseProfiler, 33P-ATP); format: biochemical; conditions: read-out: The percentage of the remaining active protein
[17] = biological target: ROCK-II(r) (Rattus norvegicus (Rat), UniProt Q62868); experiment: Kinase inhibition assay (KinaseProfiler, 33P-ATP); format: biochemical; conditions: read-out: The percentage of the remaining active protein
[18] = biological target: p70S6K(h) (Homo sapiens (Human), UniProt P23443); experiment: Kinase inhibition assay (KinaseProfiler, 33P-ATP); format: biochemical; conditions: read-out: The percentage of the remaining active protein
[19] = biological target: PAK2(h) (Homo sapiens (Human), UniProt Q13177); experiment: Kinase inhibition assay (KinaseProfiler, 33P-ATP); format: biochemical; conditions: read-out: The percentage of the remaining active protein
[20] = biological target: DCAMKL3(h) (Homo sapiens (Human), UniProt Q9C098); experiment: Kinase inhibition assay (KinaseProfiler, 33P-ATP); format: biochemical; conditions: read-out: The percentage of the remaining active protein
[21] = biological target: MST3(h) (Homo sapiens (Human), UniProt Q9Y6E0); experiment: Kinase inhibition assay (KinaseProfiler, 33P-ATP); format: biochemical; conditions: read-out: The percentage of the remaining active protein
[22] = biological target: DAPK2(h) (Homo sapiens (Human), UniProt Q9UIK4); experiment: Kinase inhibition assay (KinaseProfiler, 33P-ATP); format: biochemical; conditions: read-out: The percentage of the remaining active protein
[23] = biological target: EGFR(T790M, L858R) (Homo sapiens (Human), UniProt P00533, L858R/T790M); experiment: Kinase inhibition assay (KinaseProfiler, 33P-ATP); format: biochemical; conditions: EGFR(T790M, L858R)(h), read-out: The percentage of the remaining active protein
[24] = biological target: Ret(V804M)(h) (Homo sapiens (Human), UniProt P07949, V804M); experiment: Kinase inhibition assay (KinaseProfiler, 33P-ATP); format: biochemical; conditions: read-out: The percentage of the remaining active protein
[25] = biological target: CaMKIδ(h) (Homo sapiens (Human), UniProt Q8IU85); experiment: Kinase inhibition assay (KinaseProfiler, 33P-ATP); format: biochemical; conditions: read-out: The percentage of the remaining active protein
[26] = biological target: STK33(h) (Homo sapiens (Human), UniProt Q9BYT3); experiment: Kinase inhibition assay (KinaseProfiler, 33P-ATP); format: biochemical; conditions: read-out: The percentage of the remaining active protein
[27] = biological target: SRPK1(h) (Homo sapiens (Human), UniProt Q96SB4); experiment: Kinase inhibition assay (KinaseProfiler, 33P-ATP); format: biochemical; conditions: read-out: The percentage of the remaining active protein
[28] = biological target: Aurora-C(h) (Homo sapiens (Human), UniProt Q9UQB9); experiment: Kinase inhibition assay (KinaseProfiler, 33P-ATP); format: biochemical; conditions: read-out: The percentage of the remaining active protein
[29] = biological target: PDK1(h) (Homo sapiens (Human), UniProt O15530); experiment: Kinase inhibition assay (KinaseProfiler, 33P-ATP); format: biochemical; conditions: read-out: The percentage of the remaining active protein
[30] = biological target: IRAK1(h) (Homo sapiens (Human), UniProt P51617); experiment: Kinase inhibition assay (KinaseProfiler, 33P-ATP); format: biochemical; conditions: read-out: The percentage of the remaining active protein
[31] = biological target: CDK5/p35(h) (Homo sapiens (Human), UniProt Q00535); experiment: Kinase inhibition assay (KinaseProfiler, 33P-ATP); format: biochemical; conditions: read-out: The percentage of the remaining active protein
[32] = test system: MLCK(h); experiment: Kinase inhibition assay (KinaseProfiler, 33P-ATP); format: biochemical, human; conditions: 10 μM
[33] = biological target: MRCKβ(h) (Homo sapiens (Human), UniProt Q9Y5S2); experiment: Kinase inhibition assay (KinaseProfiler, 33P-ATP); format: biochemical; conditions: read-out: The percentage of the remaining active protein
[34] = biological target: ErbB4 (Homo sapiens (Human), UniProt Q15303); experiment: Kinase inhibition assay (KinaseProfiler, 33P-ATP); format: biochemical; conditions: ErbB4(h), read-out: The percentage of the remaining active protein
[35] = biological target: DYRK1B(h) (Homo sapiens (Human), UniProt Q9Y463); experiment: Kinase inhibition assay (KinaseProfiler, 33P-ATP); format: biochemical; conditions: read-out: The percentage of the remaining active protein

TAK1, sequence (O43318 1-303): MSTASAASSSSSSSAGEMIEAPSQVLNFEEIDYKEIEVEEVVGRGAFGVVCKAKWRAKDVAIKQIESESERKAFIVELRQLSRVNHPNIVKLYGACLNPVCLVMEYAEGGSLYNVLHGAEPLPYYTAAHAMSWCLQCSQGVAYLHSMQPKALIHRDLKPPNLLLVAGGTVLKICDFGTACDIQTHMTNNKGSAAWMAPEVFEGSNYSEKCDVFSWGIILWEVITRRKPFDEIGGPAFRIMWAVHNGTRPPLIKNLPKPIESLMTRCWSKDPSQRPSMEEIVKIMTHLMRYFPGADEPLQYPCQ
Abl, sequence (P00519 whole entry): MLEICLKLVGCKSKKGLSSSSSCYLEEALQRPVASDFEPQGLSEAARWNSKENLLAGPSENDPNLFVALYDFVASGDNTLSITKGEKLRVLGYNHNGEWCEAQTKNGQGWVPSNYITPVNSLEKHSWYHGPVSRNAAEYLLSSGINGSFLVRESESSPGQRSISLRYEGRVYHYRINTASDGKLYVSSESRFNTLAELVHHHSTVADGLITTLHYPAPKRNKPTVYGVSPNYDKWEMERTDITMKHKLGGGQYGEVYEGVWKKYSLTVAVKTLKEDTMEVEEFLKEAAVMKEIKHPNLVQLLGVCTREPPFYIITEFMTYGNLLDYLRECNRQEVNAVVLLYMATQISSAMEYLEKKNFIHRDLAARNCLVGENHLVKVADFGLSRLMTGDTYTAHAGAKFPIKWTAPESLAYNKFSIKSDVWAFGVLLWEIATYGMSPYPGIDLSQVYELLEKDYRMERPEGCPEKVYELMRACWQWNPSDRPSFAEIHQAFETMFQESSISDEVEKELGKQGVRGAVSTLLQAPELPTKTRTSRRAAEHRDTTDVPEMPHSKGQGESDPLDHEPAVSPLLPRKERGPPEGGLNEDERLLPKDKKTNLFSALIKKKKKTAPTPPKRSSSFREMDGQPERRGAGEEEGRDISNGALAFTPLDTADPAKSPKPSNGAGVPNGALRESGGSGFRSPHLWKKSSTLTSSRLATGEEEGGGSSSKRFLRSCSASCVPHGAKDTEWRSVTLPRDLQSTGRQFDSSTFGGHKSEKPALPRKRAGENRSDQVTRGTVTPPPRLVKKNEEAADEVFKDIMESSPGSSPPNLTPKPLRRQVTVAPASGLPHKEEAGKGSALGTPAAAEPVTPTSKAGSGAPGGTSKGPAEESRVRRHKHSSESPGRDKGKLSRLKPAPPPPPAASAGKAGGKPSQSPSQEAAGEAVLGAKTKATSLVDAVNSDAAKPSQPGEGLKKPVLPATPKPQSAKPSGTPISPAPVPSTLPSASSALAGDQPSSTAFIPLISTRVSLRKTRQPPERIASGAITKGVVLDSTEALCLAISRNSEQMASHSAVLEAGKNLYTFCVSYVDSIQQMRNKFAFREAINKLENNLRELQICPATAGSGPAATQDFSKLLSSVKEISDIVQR
JAK2, sequence (O60674 whole entry): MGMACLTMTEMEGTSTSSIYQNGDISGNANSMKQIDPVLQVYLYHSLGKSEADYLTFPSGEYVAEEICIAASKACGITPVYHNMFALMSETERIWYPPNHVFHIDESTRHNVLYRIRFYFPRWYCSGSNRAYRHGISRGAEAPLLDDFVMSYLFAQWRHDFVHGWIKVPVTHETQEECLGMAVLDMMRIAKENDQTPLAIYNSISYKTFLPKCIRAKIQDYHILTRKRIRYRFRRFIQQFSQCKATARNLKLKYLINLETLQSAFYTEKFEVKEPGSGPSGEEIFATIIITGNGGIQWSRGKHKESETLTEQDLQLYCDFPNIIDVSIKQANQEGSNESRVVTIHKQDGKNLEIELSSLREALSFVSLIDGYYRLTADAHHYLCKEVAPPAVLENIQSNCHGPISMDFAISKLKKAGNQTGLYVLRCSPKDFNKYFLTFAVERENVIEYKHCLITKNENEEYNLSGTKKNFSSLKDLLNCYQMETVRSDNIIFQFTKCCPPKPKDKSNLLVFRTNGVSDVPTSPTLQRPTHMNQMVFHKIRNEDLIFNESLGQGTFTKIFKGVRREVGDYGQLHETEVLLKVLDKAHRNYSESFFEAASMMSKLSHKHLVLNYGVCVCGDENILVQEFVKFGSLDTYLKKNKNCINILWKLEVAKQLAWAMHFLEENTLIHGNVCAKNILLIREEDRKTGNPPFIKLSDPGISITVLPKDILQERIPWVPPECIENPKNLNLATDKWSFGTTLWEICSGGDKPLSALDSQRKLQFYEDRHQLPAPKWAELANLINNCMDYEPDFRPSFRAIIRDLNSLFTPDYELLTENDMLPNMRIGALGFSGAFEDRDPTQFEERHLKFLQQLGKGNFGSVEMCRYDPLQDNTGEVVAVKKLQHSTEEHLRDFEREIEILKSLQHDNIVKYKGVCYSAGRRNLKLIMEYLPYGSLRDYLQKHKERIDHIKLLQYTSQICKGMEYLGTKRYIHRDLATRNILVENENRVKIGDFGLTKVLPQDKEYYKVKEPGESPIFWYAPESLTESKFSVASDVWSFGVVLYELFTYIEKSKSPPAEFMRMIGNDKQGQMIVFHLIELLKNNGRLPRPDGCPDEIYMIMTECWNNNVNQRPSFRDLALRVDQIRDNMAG
MEK1(h), sequence (Q02750 whole entry): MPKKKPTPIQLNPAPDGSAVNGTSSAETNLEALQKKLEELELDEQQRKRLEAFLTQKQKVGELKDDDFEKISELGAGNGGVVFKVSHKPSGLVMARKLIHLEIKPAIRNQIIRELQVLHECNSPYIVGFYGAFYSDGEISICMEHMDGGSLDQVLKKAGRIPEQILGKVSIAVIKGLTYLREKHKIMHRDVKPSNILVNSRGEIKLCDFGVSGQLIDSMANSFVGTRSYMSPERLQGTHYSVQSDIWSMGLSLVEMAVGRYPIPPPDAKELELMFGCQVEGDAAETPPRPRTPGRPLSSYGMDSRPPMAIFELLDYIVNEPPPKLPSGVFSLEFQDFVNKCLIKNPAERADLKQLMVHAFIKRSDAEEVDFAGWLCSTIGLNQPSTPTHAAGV
EphA1(h), sequence (P21709 26-976): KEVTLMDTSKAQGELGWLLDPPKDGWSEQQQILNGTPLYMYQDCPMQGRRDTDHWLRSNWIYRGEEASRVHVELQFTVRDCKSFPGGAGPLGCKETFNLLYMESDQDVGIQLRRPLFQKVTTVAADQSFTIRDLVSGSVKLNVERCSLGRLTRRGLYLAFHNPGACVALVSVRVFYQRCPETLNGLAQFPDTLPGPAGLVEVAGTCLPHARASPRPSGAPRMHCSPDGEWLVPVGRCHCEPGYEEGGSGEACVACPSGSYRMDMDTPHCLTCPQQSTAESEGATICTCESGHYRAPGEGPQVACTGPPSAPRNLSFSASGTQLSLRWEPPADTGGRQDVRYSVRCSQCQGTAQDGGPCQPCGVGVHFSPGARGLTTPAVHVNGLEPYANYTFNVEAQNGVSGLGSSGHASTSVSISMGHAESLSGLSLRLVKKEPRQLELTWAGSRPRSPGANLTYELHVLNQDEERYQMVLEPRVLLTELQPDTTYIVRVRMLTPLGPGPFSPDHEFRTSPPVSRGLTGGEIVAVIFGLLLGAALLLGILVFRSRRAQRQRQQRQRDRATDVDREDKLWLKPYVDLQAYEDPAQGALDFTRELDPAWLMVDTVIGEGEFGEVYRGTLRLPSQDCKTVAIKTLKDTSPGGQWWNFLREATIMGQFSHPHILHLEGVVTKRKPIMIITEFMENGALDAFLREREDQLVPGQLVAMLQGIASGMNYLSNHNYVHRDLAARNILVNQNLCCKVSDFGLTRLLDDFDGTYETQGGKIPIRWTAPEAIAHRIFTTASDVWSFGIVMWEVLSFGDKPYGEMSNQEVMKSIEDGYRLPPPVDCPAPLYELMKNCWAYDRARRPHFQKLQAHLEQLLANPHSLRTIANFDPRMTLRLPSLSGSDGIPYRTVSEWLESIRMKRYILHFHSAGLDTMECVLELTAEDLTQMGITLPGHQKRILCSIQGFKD
IRAK1(h), sequence (P51617 whole entry): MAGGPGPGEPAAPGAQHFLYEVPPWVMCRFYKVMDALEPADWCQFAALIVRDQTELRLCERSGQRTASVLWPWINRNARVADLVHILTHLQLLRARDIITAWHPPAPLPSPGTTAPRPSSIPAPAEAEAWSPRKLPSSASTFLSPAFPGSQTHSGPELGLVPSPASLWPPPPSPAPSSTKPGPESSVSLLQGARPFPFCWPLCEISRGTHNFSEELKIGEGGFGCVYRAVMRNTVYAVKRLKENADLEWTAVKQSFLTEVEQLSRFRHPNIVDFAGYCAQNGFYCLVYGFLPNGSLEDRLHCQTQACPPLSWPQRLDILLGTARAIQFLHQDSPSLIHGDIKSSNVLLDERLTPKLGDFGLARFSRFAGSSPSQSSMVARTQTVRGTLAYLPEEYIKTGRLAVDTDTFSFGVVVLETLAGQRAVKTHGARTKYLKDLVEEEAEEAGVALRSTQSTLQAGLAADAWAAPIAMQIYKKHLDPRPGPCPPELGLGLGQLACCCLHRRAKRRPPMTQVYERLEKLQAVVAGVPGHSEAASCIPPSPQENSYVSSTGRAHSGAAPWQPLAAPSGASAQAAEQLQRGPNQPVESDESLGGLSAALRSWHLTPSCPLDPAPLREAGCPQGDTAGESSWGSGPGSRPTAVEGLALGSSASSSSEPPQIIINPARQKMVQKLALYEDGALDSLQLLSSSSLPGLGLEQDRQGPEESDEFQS
TSSK1(h), sequence (Q9BXA7 whole entry): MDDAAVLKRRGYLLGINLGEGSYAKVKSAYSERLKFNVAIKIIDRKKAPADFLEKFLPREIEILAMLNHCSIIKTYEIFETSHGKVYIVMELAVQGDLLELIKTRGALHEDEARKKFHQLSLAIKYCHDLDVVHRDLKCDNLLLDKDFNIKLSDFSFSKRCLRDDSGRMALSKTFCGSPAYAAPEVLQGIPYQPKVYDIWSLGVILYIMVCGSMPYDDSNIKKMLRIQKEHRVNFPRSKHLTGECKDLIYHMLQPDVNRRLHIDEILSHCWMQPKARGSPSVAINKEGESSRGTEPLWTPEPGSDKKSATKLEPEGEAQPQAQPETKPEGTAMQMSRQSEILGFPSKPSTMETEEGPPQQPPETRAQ

## CCn1nc(C#Cc2cc(C(=O)Nc3ccc(CN4CCN(C)CC4)c(C(F)(F)F)c3)ccc2C)c2c(N)ncnc21 [Compound 3]
[1]; JAK2, ATP at Km
  IC50: 2.91 µM
[2]; 72 h
  IC50: 0.607 µM
[3]; Abl, ATP at Km
  IC50: < 0.001 µM
[4]; SW1990, 72 h
  IC50: 0.356 µM

## Cc1ccc(NC(=O)c2cccc(C(F)(F)F)c2)cc1C#Cc1nn(C2CCN(C)CC2)c2ncnc(N)c12 [Compound 31]
[5]
  IC50: 6.17 µM
[6]
  IC50: 3.97 µM
[7]
  IC50: 7.38 µM
[8]; compound at 10 μM
  The percentage of the remaining active protein: 66%
[2]; CFPAC, MTT, 72 hours
  IC50: 0.472 µM
[9]; compound at 10 μM
  remaining activity at 10 µM: 1%
[10]
  remaining activity at 10 µM: 52%
[11]; compound at 10 μM
  remaining activity at 10 µM: 2%
[11]; TAK1, ATP at Km
  IC50: 0.203 µM
[4]; SW1990, MTT, 72 hours
  IC50: 0.206 µM

## Cc1ccc(NC(=O)c2ccc(C)c(C(F)(F)F)c2)cc1C#Cc1nn([C@H]2CC[C@H](O)CC2)c2ncnc(N)c12 [Compound 93]
[12]
  remaining activity at 10 µM: 102%
[5]
  IC50: ~10 µM
[13]
  remaining activity at 10 µM: 0%
[14]
  remaining activity at 10 µM: 13%
[15]
  remaining activity at 10 µM: 0%
[6]
  IC50: ~10 µM
[1]; JAK2(h), 10 μM, read-out: The percentage of the remaining active protein
  remaining activity at 10 µM: 64%
[16]
  remaining activity at 10 µM: 100%
[17]
  remaining activity at 10 µM: 85%
[18]
  remaining activity at 10 µM: 33%
[19]
  remaining activity at 10 µM: 68%
[20]
  remaining activity at 10 µM: 101%
[21]
  remaining activity at 10 µM: 114%
[22]
  remaining activity at 10 µM: 95%
[23]
  remaining activity at 10 µM: 0%
[24]
  remaining activity at 10 µM: -2%
[25]
  remaining activity at 10 µM: 92%
[26]
  remaining activity at 10 µM: 109%
[27]
  remaining activity at 10 µM: 106%
[8]; 10 μM
  The percentage of the remaining active protein: 87%
[28]
  remaining activity at 10 µM: 101%
[29]
  remaining activity at 10 µM: 113%
[30]
  remaining activity at 10 µM: 30%
[31]
  remaining activity at 10 µM: 127%
[32]
  The percentage of the remaining active protein: 62%
[33]
  remaining activity at 10 µM: 87%
[3]; Abl(h), 10 μM, read-out: The percentage of the remaining active protein
  remaining activity at 10 µM: -3%
[34]
  remaining activity at 10 µM: -3%
[9]; 10 μM
  remaining activity at 10 µM: 1%
[10]
  remaining activity at 10 µM: 34%
[11]; 10 μM
  remaining activity at 10 µM: 1%
[35]
  remaining activity at 10 µM: 92%
